Consider 3 molecules from patent publication US20250034094A1, “A FAST AND EFFICIENT PROCESS FOR THE PREPARATION OF N-RETINYLIDENE-N-RETINYLETHANOLAMINE (A2E)” (Purdue Research Foundation, priority 2021, published 2025).

For one series, the system named is ARPE19 cells. Kind of series: Cell viability assay (AlamarBlue) of ARPE19 cells treated with A2E lots, with or without inhibitors. In kind it is cell-based. Particulars: RPE cells, 24 hours in the dark. How it is done:
ARPE19 cells from ATCC were plated at 80% confluency in 96-well plates and pre-treated for 1 hour with inhibitors (33 μM Necrostatin 7 (Cayman Chemicals): 2 mM N-acetyl-cysteine (NAC) (Sigma): 50 μg/ml phoroglucinol (Sigma)), after which the medium was supplemented with A2E/ATRD or vehicle (control) and cells were incubated in serum-free OptiMEM (Invitrogen) medium for an additional 23 hours at 37° C. To assess viability, 20 μL of 10× AlamarBlue® (Invitrogen) were added per well, and cells were incubated for an additional hour before reading the fluorescence in SpectraMax M5e (Molecular Devices, CA, USA) using 555 nm excitation/585 nm emission.

For series [1] the following is noted: HPLC analysis, cited from earlier work.

On to `CC(C=CC1=C(C)CCCC1(C)C)=CC=CC(C)=Cc1cc(C=CC=C(C)C=CC2=C(C)CCCC2(C)C)cc[n+]1CCO` [A2E #1, N-retinylidene-N-retinylethanolamine], for which the “protection from A2E-induced toxicity by antioxidants (NAC)” value in the series with ARPE19 cells (pre-treated with 2 mM N-acetyl-cysteine) is recorded as “partially protected by antioxidants (NAC)”.

Take `CC(C=CC1=C(C)CCCC1(C)C)=CC=CC(C)=Cc1cc(C=CC=C(C)C=CC2=C(C)CCCC2(C)C)cc[n+]1CCO` [A2E #3, N-retinylidene-N-retinylethanolamine]: the “neutralization of A2E toxicity by necroptosis inhibitor Nec7” value in the series with ARPE19 cells (pre-treated with 33 μM Necrostatin 7) is “better neutralized with the necroptosis inhibitor, Nec7”.

For `CC(C=CC1=C(C)CCCC1(C)C)=CC=CC(C)=Cc1cc(C=CC=C(C)C=CC2=C(C)CCCC2(C)C)cc[n+]1CCO` [A2E, N-retinylidene-N-retinylethanolamine], in series [1] (solvents THF, CHCl3 or EtOH), the “stability in THF, CHCl3 or EtOH” value is “not stable”. Moreover, in series [1] (solvents methanol and DMSO), the “stability in methanol and DMSO” value is “stable”.
